Measured values published in paper PMC6017909, “Synthesis and Evaluation of the Tumor Cell Growth Inhibitory Potential of New Putative HSP90 Inhibitors” (Molecules : A Journal of Synthetic Chemistry and Natural …, 2018).

Legend:
[1] = tested on: A431; test: Cell-counting assay, 72-h drug exposure; type: cell-based; conditions: Homo sapiens, A-431, read-out: Cell Growth Inhibitory Activity A431 IC50 72 h
From the text: (§1) For the cytotoxic activity studies and determination of GI50 concentrations in three different tumor cell lines, the cell culture conditions are described in Section 3.5. For the studies on the effect on % viable cells, cell cycle, cellular proliferation, and apoptosis, culture conditions are described in Section 3.6.1. For the remaining studies, the epithelial carcinoma cell line A431 and the non-small cell lung carcinoma cell line NCI-H460 were routinely grown in RPMI 1640 (Lonza, Vierviers, Belgium), supplemented with 10% (v/v) heat-inactivated fetal bovine serum (FBS, GIBCO, Invitrogen, Paisley, UK). The human peritoneal mesothelioma cell line STO was kindly provided by Dr. N. Zaffaroni (IRCCS Istituto Nazionale Tumori, Milan, Italy) and grown in 50/50 DMEM-Ham’s F12 medium (Lonza, Vierviers, Belgium), supplemented with 10% (v/v) heat-inactivated foetal bovine serum and 2 mM L-glutamine (L-Gln). All cell lines were maintained at 37 °C in a 5%/95% CO2/air atmosphere. All the compounds tested were freshly prepared by dissolving powder in dimethylsulfoxide (DMSO) (BDH Prolabo, Milan, Italy) and following dilution in culture medium. Cells were incubated with drugs for 48 h or 72 h (unless otherwise stated) at 37 °C in culture medium supplemented with 10% (v/v) heat-inactivated FBS; drug concentrations used for each assay and duration of treatments are reported in Legends to Figures.
(§2) Cellular sensitivity to drugs was evaluated by a cell-counting assay after 72-h drug exposure. Cells in the logarithmic phase of growth were seeded in duplicate into 6-well plates. Twenty-four hours after seeding, the drug was added to the medium. Cells were harvested 72 h after drug exposure and counted with a cell counter.

[2] = tested on: NCI-H460; test: Cell-counting assay, 72-h drug exposure; type: cell-based; conditions: Homo sapiens, read-out: Cell Growth Inhibitory Activity NCI-H460 IC50 72 h
From the text: as §1, §2

[3] = molecular target: T1, HSP90 (Homo sapiens, UniProt P07900); test: HSP90 binding, fluorescence polarization with GM-FITC; conditions: displacement of GM-FITC 5 nM, 30 nM HSP90, 4 °C, 4 h; read-out: Binding HSP90 (FP) IC50
T1 construct: purchased Stressgen SPP-776
Experimental: GM-FITC Geldanamycin-fluorescein-5-isothiocyanate (working concentration: 1–400 nM), supplied by Invivogen (06C23-MT, San Diego, CA, USA), was previously dissolved in DMSO to obtain 10 mM stock solutions and kept at −20 °C until use. […] The compounds were previously dissolved in DMSO to obtain stock solutions and kept at −20 °C. The day of experiment, the compounds were prepared by serial dilutions in assay buffer (HFB) containing 20 mM HEPES (K) pH 7.3, 50 mM KCl, 5 mM MgCl2, 20 mM Na2MoO4 and 0.01% NP40. Before each use, 0.1 mg/mL Bovine Gamma globulin and 2 mM DTT were freshly added. […] The plate was mixed on a shaker at 4 °C for 4 h, and the FP values in mP (millipolarization units) were recorded. […] Curve fitting was performed using Prism GraphPad software program (GraphPad software, Inc., San Diego, CA, USA).

[4] = tested on: STO; test: Cell-counting assay, 72-h drug exposure; type: cell-based; conditions: Homo sapiens, read-out: Cell Growth Inhibitory Activity STO IC50 72 h
From the text: as §1, §2

Row | Compound | IC50 [1] [µM] | IC50 [2] [µM] | IC50 [3] [µM] | IC50 [4] [µM]
1 | O=C1c2ccccc2C(=O)c2c[n+](Cc3ccccc3)ccc21 [Compound 2a, 2-Benzyl-5,10-dioxo-5,10-dihydro-benzo[g]isoquinolinium bromide] | 0.2 ± 0.01 | 0.7 ± 0.01 | – | –
2 | O=C1c2ccccc2C(=O)c2c[n+](Cc3ccc(F)cc3F)ccc21 [Compound 2b, 2-(2,4-Difluoro-benzyl)-5,10-dioxo-5,10-dihydro-benzo[g]isoquinolinium bromide] | 3.1 ± 0.5 | 3.2 ± 0.5 | – | –
3 | CC(C)(C)c1ccc(C[n+]2ccc3c(c2)C(=O)c2ccccc2C3=O)cc1 [Compound 2c, 2-(4-tert-Butyl-benzyl)-5,10-dioxo-5,10-dihydro-benzo[g]isoquinolinium bromide] | 0.46 ± 0.8 | – | – | –
4 | O=c1c2ccccc2oc2cnccc12 [Compound 4, 5H-chromeno[2,3-c]pyridin-5-one] | > 50 | > 50 | > 100 | > 50
5 | O=c1c2ccccc2sc2cnccc12 [Compound 7] | 46.9 | > 50 | 2.47 ± 0.09 | 46.9
6 | O=c1c2ccccc2oc2c1ccc[n+]2Cc1ccccc1 [Compound 10, 1-Benzyl-10-oxo-10H-9-oxa-1-azonia-anthracene bromide] | > 50 | > 50 | > 100 | > 50
7 | C=CCNC1=C2C[C@@H](C)C[C@H](OC)[C@H](O)[C@@H](C)/C=C(\C)[C@H](OC(N)=O)[C@@H](OC)/C=C\C=C(/C)C(=O)NC(=CC1=O)C2=O [Compound 17-AAG, 17-N-allylamino-17-demethoxygeldanamycin, reference compound] | 0.069 ± 0.005 | 0.01 ± 0.002 | – | –
